Ki, IC50 and EC50 data for five molecules are collected here from paper doi:10.1101/2022.03.02.482641v1 (biorxiv, 2022).

Holding throughout (format): biochemical
The target in assay [1] is T1, zfSARM1 (zebrafish SARM1, zfSARM1 w.t.) (Danio rerio, UniProt F1QWA8).
T1 sequence (F1QWA8 22-713): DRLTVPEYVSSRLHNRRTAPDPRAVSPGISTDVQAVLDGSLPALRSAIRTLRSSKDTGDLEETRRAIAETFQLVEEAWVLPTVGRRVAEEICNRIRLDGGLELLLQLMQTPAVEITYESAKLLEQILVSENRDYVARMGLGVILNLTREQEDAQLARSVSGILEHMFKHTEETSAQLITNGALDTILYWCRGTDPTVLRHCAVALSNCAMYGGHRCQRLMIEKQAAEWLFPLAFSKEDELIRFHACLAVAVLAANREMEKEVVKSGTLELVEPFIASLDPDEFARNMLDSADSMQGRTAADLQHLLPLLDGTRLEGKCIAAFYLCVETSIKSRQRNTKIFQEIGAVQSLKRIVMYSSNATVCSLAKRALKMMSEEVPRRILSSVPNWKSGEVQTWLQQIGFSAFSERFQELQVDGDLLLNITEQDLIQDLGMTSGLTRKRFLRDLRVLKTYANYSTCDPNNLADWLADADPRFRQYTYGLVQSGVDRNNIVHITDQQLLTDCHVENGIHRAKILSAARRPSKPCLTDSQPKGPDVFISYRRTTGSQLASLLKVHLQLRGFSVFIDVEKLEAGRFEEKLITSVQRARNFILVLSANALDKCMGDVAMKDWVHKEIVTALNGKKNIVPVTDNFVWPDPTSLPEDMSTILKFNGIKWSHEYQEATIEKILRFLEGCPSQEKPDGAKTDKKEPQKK
The experiment in a line: NADase kinetics, HPLC, substrate inhibition fit. The settings on record: apparent substrate inhibition by NAD+.

For assay [2], the target named is T2, hSARM1 (hSARM1 w.t., near-intact, 26ERL...GPT724) (Homo sapiens, UniProt Q6SZW1).
T2 sequence (Q6SZW1 26-724): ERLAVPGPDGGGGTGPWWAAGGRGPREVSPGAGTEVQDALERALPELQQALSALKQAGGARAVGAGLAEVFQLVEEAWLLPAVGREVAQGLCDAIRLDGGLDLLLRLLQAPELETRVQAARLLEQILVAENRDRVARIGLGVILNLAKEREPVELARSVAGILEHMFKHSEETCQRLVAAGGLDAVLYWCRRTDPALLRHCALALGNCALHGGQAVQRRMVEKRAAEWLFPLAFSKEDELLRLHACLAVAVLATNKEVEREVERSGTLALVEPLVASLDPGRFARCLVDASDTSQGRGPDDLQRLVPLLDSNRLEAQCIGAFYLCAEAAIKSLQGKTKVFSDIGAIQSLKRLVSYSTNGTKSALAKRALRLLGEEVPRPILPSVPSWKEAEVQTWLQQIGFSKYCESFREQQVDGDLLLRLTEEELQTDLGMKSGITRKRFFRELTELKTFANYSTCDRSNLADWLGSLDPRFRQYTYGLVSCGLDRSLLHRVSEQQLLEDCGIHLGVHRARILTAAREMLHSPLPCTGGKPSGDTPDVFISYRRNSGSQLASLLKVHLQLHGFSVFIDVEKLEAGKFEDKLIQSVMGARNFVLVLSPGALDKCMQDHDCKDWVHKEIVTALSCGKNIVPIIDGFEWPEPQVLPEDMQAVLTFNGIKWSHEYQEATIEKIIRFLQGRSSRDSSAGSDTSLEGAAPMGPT
Put plainly: NADase kinetics, HPLC, substrate inhibition fit. The note with it: apparent substrate inhibition by NAD+.

Assay [3] has as its target T2, hSARM1 (hSARM1 w.t., near-intact, 26ERL...GPT724). Put plainly: HPLC of ADPR formation.
Assay [4] deals with T1, zfSARM1 (zebrafish SARM1, zfSARM1 w.t.). The experiment in a line: HPLC of ADPR formation.

A word on the IC50: it is the midpoint of a concentration-inhibition curve. As usually defined, the EC50 is the concentration needed to bring the measured effect to its halfway point.

On to `NC(=O)c1ccc[n+]([C@@H]2O[C@H](COP(=O)([O-])OP(=O)(O)OC[C@H]3O[C@@H](n4cnc5c(N)ncnc54)[C@H](O)[C@@H]3O)[C@@H](O)[C@H]2O)c1` [NAD+], for which the Ki is 1350 µM in assay [1] and 727 µM in assay [2].
The molecule `CCOC(=O)Cn1sc2nc(C)cc(C)c2c1=O` [TK142] showed an IC50 in assay [3] of 1.8 µM.
Molecule `Cn1c(=O)c(I)c(O)c2ccccc21` [TK210] gave an IC50 in assay [3] of 4.6 µM.
With `N#Cc1c(O)nsc1Nc1ccccc1C(F)(F)F` [TK138], it took 2.7 µM to reach a half-maximal effect in assay [4] (EC50). For the same molecule, half-maximal inhibition in assay [3] (IC50) required 2.9 µM.
In turn, `O=c1[nH]sc2ccccc12` [TK222] showed an IC50 in assay [3] of 3.2 µM. This counts as single-digit micromolar.
